From ChEMBL document CHEMBL5375954, “Discovery and Evaluation of C6-Substituted Pyrazolopyrimidine-Based Bisphosphonate Inhibitors of the Human Geranylgeranyl Pyrophosphate Synthase and Evaluation of Their Antitumor Efficacy in Multiple Myeloma, Pancreatic Ductal Adenocarcinoma, and Colorectal Cancer” (J Med Chem, 2023)
Activity calls are given as the source filed them. No cut-off for these calls is given here.

Experiments:
MIA PaCa-2 [1] = experiment: cells; conditions: Homo sapiens, MIA PaCa-2, 72 h
[2] = Cytotoxicity against human IMR-90 cells assessed as inhibition of cell growth incubated for 72 hrs by MTS assay; assay type: toxicity, cell-based
Mus musculus = species on record: Mus musculus; experiment: Cytotoxicity against KPC mouse pancreatic cancer organoid ccmT4 at 1 uM incubated for 72 hrs by CellTiter-Glo luminescence based analysis; assay type: functional, tissue-based
[3] = Cytotoxicity against Normal human bronchial epithelial cells assessed as inhibition of cell growth incubated for 72 hrs by MTS assay; assay type: toxicity, cell-based
[4] = Cytotoxicity against wild type mouse normal ductal organoid [N(10128)] at 1 uM incubated for 72 hrs by CellTiter-Glo luminescence based analysis; assay type: toxicity, tissue-based
HCT-116 [5] = experiment: cells; conditions: Homo sapiens, HCT-116, 72 h
[6] = target: T1, Geranylgeranyl pyrophosphate synthase (Homo sapiens, UniProt O95749); experiment: Inhibition of N-terminal His6 tagged human GGPPS expressed in Escherichia coli BL21(DE3) cells in presence of FPP and [14C]IPP by scintillation counting analysis
T1 sequence (O95749 whole entry): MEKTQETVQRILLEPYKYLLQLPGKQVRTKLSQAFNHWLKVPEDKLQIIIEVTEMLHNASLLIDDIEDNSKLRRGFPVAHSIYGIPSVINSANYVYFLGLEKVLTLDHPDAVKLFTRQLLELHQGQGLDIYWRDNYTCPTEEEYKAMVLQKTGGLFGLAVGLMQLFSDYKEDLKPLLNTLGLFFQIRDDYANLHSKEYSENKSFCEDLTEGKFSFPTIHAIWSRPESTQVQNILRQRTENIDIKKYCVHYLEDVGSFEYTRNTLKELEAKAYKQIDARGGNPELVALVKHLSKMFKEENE

RPMI-8226 [7] = experiment: cells; conditions: Homo sapiens, RPMI-8226, 72 h
MIA PaCa-2 [8] = experiment: Antiproliferative activity against human MIA PaCa-2 cells assessed as inhibition of cell growth at 1 uM incubated for 72 hrs by MTS assay; assay type: functional, cell-based
HCT-116 [9] = experiment: Antiproliferative activity against human HCT-116 cells assessed as inhibition of cell growth at 1 uM incubated for 72 hrs by MTS assay; assay type: functional, cell-based
[10] = target: T2, Farnesyl pyrophosphate synthase (Homo sapiens) (UniProt P14324); experiment: Inhibition of N-terminally His6-tagged recombinant human FPPS expressed in Escherichia coli BL21(DE3) cells using […] and [14C]IPP as substrate at 1 uM preincubated for 10 mins followed by substrate addition by scintillation counting analysis relative to control
T2 sequence (whole entry): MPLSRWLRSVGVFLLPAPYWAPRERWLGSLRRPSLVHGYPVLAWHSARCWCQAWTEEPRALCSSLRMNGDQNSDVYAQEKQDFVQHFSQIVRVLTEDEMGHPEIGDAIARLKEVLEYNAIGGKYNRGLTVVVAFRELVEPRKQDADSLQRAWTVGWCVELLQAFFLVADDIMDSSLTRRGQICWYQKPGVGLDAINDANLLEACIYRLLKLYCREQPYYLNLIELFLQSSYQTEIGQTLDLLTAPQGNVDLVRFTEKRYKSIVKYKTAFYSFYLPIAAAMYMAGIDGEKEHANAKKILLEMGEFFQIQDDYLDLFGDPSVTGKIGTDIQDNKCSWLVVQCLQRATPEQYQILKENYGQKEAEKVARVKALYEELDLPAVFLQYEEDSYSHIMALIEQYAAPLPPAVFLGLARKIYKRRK

KMS-12-PE = experiment: Antiproliferative activity against human KMS-12-PE cells harboring wild type KRAS at 0.1 to 10000 nM incubated for 72 hrs by MTS assay; assay type: functional, cell-based; conditions: dose 0.1-10000 nM
[11] = target: T3, Ras-related protein Rap-1A (Homo sapiens) (UniProt P62834); experiment: Inhibition of RAP-1A prenylation in human HCT-116 cells incubated for 48 hrs by Western blot analysis; assay type: cell-based; conditions: dose 10-1000 nM
T3 sequence (whole entry): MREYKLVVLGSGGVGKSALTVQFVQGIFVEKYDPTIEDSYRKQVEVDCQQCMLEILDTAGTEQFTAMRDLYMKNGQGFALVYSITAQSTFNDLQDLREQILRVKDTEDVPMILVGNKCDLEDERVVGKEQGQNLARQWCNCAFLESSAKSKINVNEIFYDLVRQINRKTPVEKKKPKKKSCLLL

[12] = Cytotoxicity against Normal human bronchial epithelial cells assessed as inhibition of cell growth at 10 uM incubated for 72 hrs by MTS assay relative to control; assay type: toxicity, cell-based
[13] = target: T3, Ras-related protein Rap-1A (Homo sapiens); experiment: Inhibition of RAP-1A prenylation in human MIA PaCa-2 cells incubated for 48 hrs by Western blot analysis; assay type: cell-based; conditions: dose 10-1000 nM
RPMI-8226 [14] = experiment: Induction of ER stress in human RPMI-8226 cells at 1 uM; assay type: functional, cell-based
JJN-3 = experiment: Antiproliferative activity against human JJN-3 cells harboring wild type KRAS at 0.1 to 10000 nM incubated for 72 hrs by MTS assay; assay type: functional, cell-based; conditions: dose 0.1-10000 nM
KMS-28PE = experiment: Antiproliferative activity against human KMS-28-PE cells harboring KRAS G12A mutant at 0.1 to 10000 nM incubated for 72 hrs by MTS assay; assay type: functional, cell-based; conditions: dose 0.1-10000 nM
RPMI-8226 [15] = experiment: Antiproliferative activity against human RPMI-8226 cells harboring KRAS G12A mutant at 0.1 to 10000 nM incubated for 72 hrs by MTS assay; assay type: functional, cell-based; conditions: dose 0.1-10000 nM
[16] = Cytotoxicity against wild type mouse normal ductal organoid [N(10128)] at low nM concentrations incubated for 72 hrs by CellTiter-Glo luminescence based analysis; assay type: toxicity, tissue-based

Compound	IC50 [6]	EC50 (RPMI-8226 [7])	further results
COc1cccc2c1C(=O)c1c(O)c3c(c(O)c1C2=O)C[C@@](O)(C(=O)CO)C[C@@H]3O[C@H]1C[C@H](N)[C@H](O)[C@H](C)O1 [DOXORUBICIN]	–	–	EC50 (MIA PaCa-2 [1]): 130 nM; EC50 at 72 h [2]: 360 nM; Activity (Mus musculus): Active; EC50 at 72 h [3]: 450 nM; Activity [4]: Toxic; EC50 (HCT-116 [5]): 41 nM
O=C(Nc1ccc(C(F)(F)F)cc1)c1cccc(-c2nc(NC(P(=O)(O)O)P(=O)(O)O)c3cn[nH]c3n2)c1	8 nM	> 1000 nM	–
CCn1ncc2c(NC(P(=O)(O)O)P(=O)(O)O)nc(-c3cccc(C(=O)Nc4ccc(C(F)(F)F)cc4)c3)nc21	30 nM	> 1000 nM	–
Cn1cnc2c(NC(P(=O)(O)O)P(=O)(O)O)nc(-c3cccc(C(=O)Nc4ccc(C(F)(F)F)cc4)c3)nc21	13 nM	510 nM	–
CC(C)n1ncc2c(NC(P(=O)(O)O)P(=O)(O)O)nc(-c3cccc(C(=O)Nc4ccc(C(F)(F)F)cc4)c3)nc21	20 nM	> 1000 nM	–
O=C(Nc1ccc(C(F)(F)F)cc1)c1cccc(-c2nc(NC(P(=O)(O)O)P(=O)(O)O)c3ccsc3n2)c1	12 nM	160 nM	–
Cn1cnc2c(NC(P(=O)(O)O)P(=O)(O)O)nc(-c3cccc(C(=O)Nc4ccc(F)cc4)c3)nc21	41 nM	670 nM	–
COc1ccc(NC(=O)c2cccc(-c3nc(NC(P(=O)(O)O)P(=O)(O)O)c4ccsc4n3)c2)cc1F	–	–	Activity (Mus musculus): Active; Activity (KMS-12-PE): Active; inhibition [11]: Dose-Dependent Effect; inhibition at 72 h, 10 µM [12]: ~30%; Activity [4]: Non-Toxic; inhibition [13]: Dose-Dependent Effect; Activity (RPMI-8226 [14]): Active; Activity (JJN-3): Active; Activity (KMS-28PE): Active; Activity (RPMI-8226 [15]): Active
O=C(Nc1ccc(F)cc1)c1cccc(-c2nc(NC(P(=O)(O)O)P(=O)(O)O)c3ccsc3n2)c1	18 nM	120 nM	–
Nc1ccn([C@@H]2O[C@H](CO)[C@@H](O)C2(F)F)c(=O)n1 [GEMCITABINE]	–	–	EC50 (MIA PaCa-2 [1]): 2 nM; EC50 (HCT-116 [5]): 4 nM; Activity [16]: Toxic
CC(C)n1ncc2c(NC(P(=O)(O)O)P(=O)(O)O)nc(-c3cccc(C(=O)Nc4ccc(F)cc4)c3)nc21	30 nM	> 1000 nM	–

The next lines start with results.

IC50 [6]	EC50 (RPMI-8226 [7])	Compound	further results
31 nM	440 nM	Cn1ncc2c(NC(P(=O)(O)O)P(=O)(O)O)nc(-c3cccc(C(=O)Nc4ccc(F)cc4)c3)nc21	–
67 nM	552 nM	CCn1cc2c(NC(P(=O)(O)O)P(=O)(O)O)nc(-c3cccc(C(=O)Nc4ccc(OC)c(F)c4)c3)nc2n1	–
48 nM	150 nM	COc1ccc(NC(=O)c2cccc(-c3nc(NC(P(=O)(O)O)P(=O)(O)O)c4cnn(C)c4n3)c2)cc1F	Activity (MIA PaCa-2 [8]): inactive; Activity (HCT-116 [9]): inactive; inhibition [10]: < 10%
41 nM	> 1000 nM	COc1ccc(NC(=O)c2cccc(-c3nc(NC(P(=O)(O)O)P(=O)(O)O)c4cnn(C(C)C)c4n3)c2)cc1F	Activity (MIA PaCa-2 [8]): inactive; Activity (HCT-116 [9]): inactive; inhibition [10]: < 10%
29 nM	> 1000 nM	CCn1ncc2c(NC(P(=O)(O)O)P(=O)(O)O)nc(-c3cccc(C(=O)Nc4ccc(F)cc4)c3)nc21	–
56 nM	520 nM	COc1ccc(NC(=O)c2cccc(-c3nc(NC(P(=O)(O)O)P(=O)(O)O)c4cn(C)nc4n3)c2)cc1F	inhibition [10]: 15%
25 nM	640 nM	COc1ccc(NC(=O)c2cccc(-c3nc(NC(P(=O)(O)O)P(=O)(O)O)c4cn[nH]c4n3)c2)cc1F	Activity (MIA PaCa-2 [8]): inactive; Activity (HCT-116 [9]): inactive; inhibition [10]: 10%
58 nM	170 nM	COc1ccc(NC(=O)c2cccc(-c3nc(NC(P(=O)(O)O)P(=O)(O)O)c4ncn(C)c4n3)c2)cc1F	Activity (MIA PaCa-2 [8]): inactive; Activity (HCT-116 [9]): inactive; inhibition [10]: < 10%
40 nM	> 1000 nM	CCn1ncc2c(NC(P(=O)(O)O)P(=O)(O)O)nc(-c3cccc(C(=O)Nc4ccc(OC)c(F)c4)c3)nc21	Activity (MIA PaCa-2 [8]): inactive; Activity (HCT-116 [9]): inactive; inhibition [10]: < 10%
39 nM	> 1000 nM	O=C(Nc1ccc(F)cc1)c1cccc(-c2nc(NC(P(=O)(O)O)P(=O)(O)O)c3cn[nH]c3n2)c1	–
